Key:
CcOctβ2R [1] = test system: T1, CcOctβ2R; assay: cAMP production in stable CHO-K1 cells (cAMP immunoassay); type: cell-based, Cotesia chilonis; conditions: agonist; 100 μM IBMX; 25 °C
T1 construct: gene Octβ2R; full-length ORF, 435 residues; pcDNA3.0 vector with hemagglutinin A tag
From the text: cAMP production in stable CHO-K1 cells (cAMP immunoassay) on CcOctβ2R

CcOctβ1R [2] = test system: T2, CcOctβ1R; assay: as above; type: cell-based, Cotesia chilonis; conditions: agonist; 100 μM IBMX; 25 °C
T2 construct: gene Octβ1R; full-length ORF, 417 residues; pcDNA3.0 vector with hemagglutinin A tag
From the text: cAMP production in stable CHO-K1 cells (cAMP immunoassay) on CcOctβ1R

CcOctβ3R [3] = test system: T3, CcOctβ3R; assay: as above; type: cell-based, Cotesia chilonis; conditions: agonist; 100 μM IBMX; 25 °C
T3 construct: gene Octβ3R; full-length ORF, 358 residues; pcDNA3.0 vector with hemagglutinin A tag
From the text: cAMP production in stable CHO-K1 cells (cAMP immunoassay) on CcOctβ3R

CcOctβ2R [4] = test system: T4, CcOctβ2R; conditions: read-out: CcOctβ2R / IC50; antagonist; non-saturating OA (30 nM); 100 μM IBMX; 25 °C
T4 construct: gene Octβ2R
From the text: inhibition of OA-induced cAMP in stable CHO-K1 cells (cAMP immunoassay) on CcOctβ2R

CcOctβ3R [5] = test system: T5, CcOctβ3R; conditions: read-out: CcOctβ3R / IC50; antagonist; non-saturating OA (300 nM); 100 μM IBMX; 25 °C
T5 construct: gene Octβ3R
From the text: inhibition of OA-induced cAMP in stable CHO-K1 cells (cAMP immunoassay) on CcOctβ3R

CcOctβ1R [6] = test system: T6, CcOctβ1R; conditions: read-out: CcOctβ1R / IC50; antagonist; non-saturating OA (100 nM); 100 μM IBMX; 25 °C
T6 construct: gene Octβ1R
From the text: inhibition of OA-induced cAMP in stable CHO-K1 cells (cAMP immunoassay) on CcOctβ1R

| SMILES | EC50 (CcOctβ2R [1]) [nM] | EC50 (CcOctβ1R [2]) [nM] | EC50 (CcOctβ3R [3]) [nM] | IC50 (CcOctβ2R [4]) [nM] | IC50 (CcOctβ3R [5]) [nM] | IC50 (CcOctβ1R [6]) [nM] |
| --- | --- | --- | --- | --- | --- | --- |
| Cc1ccc(/N=C/N(C)/C=N/c2ccc(C)cc2C)c(C)c1 [Amitraz] | 3.27 | 16.5 | – | – | – | – |
| CN=CNc1ccc(C)cc1C [DPMF, N^2-(2,4-dimethylphenyl)-N^1-methyformamidine] | 2.37 | 9.25 | 4.35 | – | – | – |
| NC1=NCC2c3ccccc3Cc3ccccc3N12 (centres unmarked) [Epinastine] | – | – | – | 14.4 | 7.34 | 37.6 |
| c1ccc2c(CC3=NCCN3)cccc2c1 [Naphazoline] | 0.0157 | 0.231 | 5.06 | – | – | – |
| NC[C@H](O)c1ccc(O)cc1 [OA] | 6.69 | 39 | 33.6 | – | – | – |
